What all share (format): nucleic-acid assay
Assay [1] concerns Nucleic Acid. Nature of the assay: Induction of DNA cleavage in Escherichia coli pBR322 DNA assessed as formation of relaxed circular DNA at 100 uM treated for 1 hr using ethidium bromide staining by agarose gel electrophoresis analysis in presence of UV light. Details: scale not given: the % may be the effect or the level left.
Assay [2] concerns Nucleic Acid. Put plainly: Induction of DNA cleavage in Escherichia coli pBR322 DNA assessed as formation of relaxed circular DNA at 40 uM treated for 1 hr using ethidium bromide staining by agarose gel electrophoresis analysis in presence of UV light. Details: scale not given: the % may be the effect or the level left.
Assay [3] deals with Nucleic Acid. Put plainly: Induction of DNA cleavage in Escherichia coli pBR322 DNA assessed as formation of relaxed circular DNA at 100 uM treated for 1 hr using ethidium bromide staining by agarose gel electrophoresis analysis in presence of UV light and ascorbic acid. Details: scale not given: the % may be the effect or the level left.
Assay [4] concerns Nucleic Acid. Nature of the assay: Induction of DNA cleavage in Escherichia coli pBR322 DNA assessed as formation of relaxed circular DNA at 100 uM treated for 1 hr using ethidium bromide staining by agarose gel electrophoresis analysis in presence of bubbling with Ar gas. Details: scale not given: the % may be the effect or the level left.
The subject of assay [5] is Nucleic Acid. Put plainly: Induction of DNA cleavage in Escherichia coli pBR322 DNA assessed as formation of relaxed circular DNA at 10 uM treated for 1 hr using ethidium bromide staining by agarose gel electrophoresis analysis in presence of UV light. Details: scale not given: the % may be the effect or the level left.
Assay [6] relates to Nucleic Acid. Nature of the assay: Induction of DNA cleavage in Escherichia coli pBR322 DNA assessed as formation of relaxed circular DNA at 100 uM treated for 1 hr using ethidium bromide staining by agarose gel electrophoresis analysis in presence of UV light and DABCO. Details: scale not given: the % may be the effect or the level left.
Assay [7] has as its system Nucleic Acid. Put plainly: Induction of DNA cleavage in Escherichia coli pBR322 DNA assessed as formation of relaxed circular DNA at 50 uM treated for 1 hr using ethidium bromide staining by agarose gel electrophoresis analysis in presence of UV light. Details: scale not given: the % may be the effect or the level left.
The test system of assay [8] is Nucleic Acid. Put plainly: Induction of DNA cleavage in Escherichia coli pBR322 DNA assessed as formation of relaxed circular DNA at 100 uM treated for 1 hr using ethidium bromide staining by agarose gel electrophoresis analysis in presence of UV light and 40 mM of NaN3. Details: scale not given: the % may be the effect or the level left.
The subject of assay [9] is Nucleic Acid. Put plainly: Induction of DNA cleavage in Escherichia coli pBR322 DNA assessed as formation of relaxed circular DNA at 75 uM treated for 1 hr using ethidium bromide staining by agarose gel electrophoresis analysis in presence of UV light. Details: scale not given: the % may be the effect or the level left.
Assay [10] deals with Nucleic Acid. Put plainly: Induction of DNA cleavage in Escherichia coli pBR322 DNA assessed as formation of relaxed circular DNA at 100 uM treated for 1 hr using ethidium bromide staining by agarose gel electrophoresis analysis in presence of UV light and 150 mM of NaN3. Details: scale not given: the % may be the effect or the level left.
Assay [11] deals with Nucleic Acid. Put plainly: Induction of DNA cleavage in Escherichia coli pBR322 DNA assessed as formation of relaxed circular DNA at 100 uM treated for 1 hr using ethidium bromide staining by agarose gel electrophoresis analysis in presence of UV light and D2O. Details: scale not given: the % may be the effect or the level left.
The test system of assay [12] is Nucleic Acid. Nature of the assay: Induction of DNA cleavage in Escherichia coli pBR322 DNA assessed as formation of relaxed circular DNA at 25 uM treated for 1 hr using ethidium bromide staining by agarose gel electrophoresis analysis in presence of UV light. Details: scale not given: the % may be the effect or the level left.
Assay [13] has as its system Nucleic Acid. Put plainly: Induction of DNA cleavage in Escherichia coli pBR322 DNA assessed as formation of relaxed circular DNA at 100 uM treated for 1 hr using ethidium bromide staining by agarose gel electrophoresis analysis in presence of UV light and 600 mM of NaN3. Details: scale not given: the % may be the effect or the level left.
Assay [14] concerns Nucleic Acid. Put plainly: Induction of DNA cleavage in Escherichia coli pBR322 DNA assessed as formation of relaxed circular DNA at 100 uM treated for 1 hr using ethidium bromide staining by agarose gel electrophoresis analysis in presence of bubbling with O2 gas. Details: scale not given: the % may be the effect or the level left.
The subject of assay [15] is Nucleic Acid. Put plainly: Induction of DNA cleavage in Escherichia coli pBR322 DNA assessed as formation of relaxed circular DNA at 100 uM treated for 1 hr using ethidium bromide staining by agarose gel electrophoresis analysis in presence of UV light and 20 mM of NaN3. Details: scale not given: the % may be the effect or the level left.
Assay [16] relates to Nucleic Acid. Nature of the assay: Induction of DNA cleavage in Escherichia coli pBR322 DNA assessed as formation of relaxed circular DNA at 100 uM treated for 1 hr using ethidium bromide staining by agarose gel electrophoresis analysis in presence of UV light and 300 mM of NaN3. Details: scale not given: the % may be the effect or the level left.
Assay [17] concerns Nucleic Acid. Put plainly: Induction of DNA cleavage in Escherichia coli pBR322 DNA assessed as formation of relaxed circular DNA at 100 uM treated for 1 hr using ethidium bromide staining by agarose gel electrophoresis analysis in presence of UV light and 75 mM of NaN3. Details: scale not given: the % may be the effect or the level left.
Assay [18] has as its system Nucleic Acid. Put plainly: Induction of DNA cleavage in Escherichia coli pBR322 DNA assessed as formation of relaxed circular DNA at 100 uM treated for 1 hr using ethidium bromide staining by agarose gel electrophoresis analysis in presence of UV light and DMSO. Details: scale not given: the % may be the effect or the level left.
The subject of assay [19] is Nucleic Acid. Nature of the assay: Induction of DNA cleavage in Escherichia coli pBR322 DNA assessed as formation of relaxed circular DNA treated for 1 hr using ethidium bromide staining by agarose gel electrophoresis analysis in presence of UV light.

This passage reports Activity results from ChEMBL document CHEMBL2169745, “Photoinduced DNA cleavage by anthracene based hydroxamic acids” (Bioorg Med Chem Lett, 2012).

In the case of `O=C(NO)C(NCc1c2ccccc2cc2ccccc12)c1ccccc1` (stereo not drawn), the Activity in assay [1] was determined as 98%.

As for `O=C(NO)C(Cc1c[nH]c2ccccc12)NCc1c2ccccc2cc2ccccc12` (stereo not drawn), the Activity in assay [1] was found to be 91%.

Consider `O=C(/C=C/c1cccc2ccccc12)NC(Cc1ccccc1)C(=O)NO` (stereo not drawn), for which the Activity in assay [1] is 15%.

Regarding `O=C(/C=C/c1c2ccccc2cc2ccccc12)NC(Cc1ccccc1)C(=O)O` (stereo not drawn), the Activity in [1] is 35%.

On to `O=C(/C=C/c1c2ccccc2cc2ccccc12)NC(Cc1c[nH]c2ccccc12)C(=O)NO` (stereo not drawn), for which the Activity in assay [1] turned out to be 89%.

Regarding `O=C(NO)C(Cc1ccccc1)NCc1cccc2ccccc12` (stereo not drawn), the Activity in assay [1] turned out to be 16%.

Regarding `O=C(NO)C(Cc1ccccc1)NCc1c2ccccc2cc2ccccc12` (stereo not drawn), the Activity amounted to 10% in assay [2]; 37% in [3]; 75% in assay [4]; 2% in [5]; 74% in [6]; 25% in assay [7]. Besides, the Activity in assay [8] was determined as 86%; in assay [9] it was 67%; in [10] it was 63%; in assay [11] it was 100%; in assay [12], 4%; in assay [13], 62%. Further, the Activity in assay [14] was 100%; in [1], 97%; in [15], 97%; in [16], 62%; in assay [17], 77%; in assay [18] it was 54%. Also, the Activity entry in [19] was “Dose-dependent effect”.

For `O=C(/C=C/c1c2ccccc2cc2ccccc12)NC(Cc1ccccc1)C(=O)NO` (stereo not drawn), in assay [1], the Activity stood at 98%.

On to `O=C(/C=C/c1c2ccccc2cc2ccccc12)NC(C(=O)NO)c1ccccc1` (stereo not drawn), for which, in assay [1], the Activity is 99%.

Take `O=C(O)C(Cc1ccccc1)NCc1c2ccccc2cc2ccccc12` (stereo not drawn): the Activity in assay [1] worked out at 60%.
